Source: ChEMBL document CHEMBL1137245, “Synthesis and anti-HIV-1 activity of a novel series of 1,4,2-benzodithiazine-dioxides” (Bioorg Med Chem Lett, 2006)

How the values were obtained:
[1] = Therapeutic index, ratio of IC50 for CEM cells to EC50 for HIV1; format: cell-based, CCRF-CEM; details: human, read-out: Ratio IC50/EC50
[2] = tested on: Human immunodeficiency virus 1; assay: Antiviral activity against HIV1 in CEM cells; format: functional, organism-based; details: Human immunodeficiency virus 1, CCRF-CEM
[3] = tested on: CCRF-CEM; assay: Cytotoxicity against CEM cells; format: cell-based; details: Homo sapiens

Structure (SMILES) | selectivity ratio [1] | EC50 [2] [µM] | IC50 [3] [µM]
Cc1cc(Cl)cc2c1S(=O)(=O)N1CCCN=C1S2 | 1180 | 0.09 | 106
Cc1cc2c(cc1Cl)SC1=NCC(C)CN1S2(=O)=O (stereo not drawn) | > 1.23 | 162 | > 200
Cc1cc2c(cc1Cl)SC1=NCCN1S2(=O)=O | 8.2 | 16.5 | 135
Cc1cc2c(cc1Cl)SC1=NCCCN1S2(=O)=O | > 204 | 0.98 | > 200
Cc1cc2c(cc1Cl)SC1=NCC(C)N1S2(=O)=O (stereo not drawn) | 12.6 | 8.52 | 107
Cc1cc2c(cc1Cl)SC1=NC(CCl)CN1S2(=O)=O (stereo not drawn) | 6.4 | 4.04 | 28
Cc1cc2c(cc1Cl)SC1=NC(CSCc3ccccc3)CN1S2(=O)=O (stereo not drawn) |  | > 200 | 135
O=S1(=O)c2ccc(Cl)cc2SC2=NCCCN21 | > 42.1 | 4.75 | > 200
